In BindingDB's records for doi:10.1021/jm00031a017 (University of California, 1994):

Test system: recombinant HIV-2 protease
Assay: In vitro inhibition of recombinant HIV-2 protease expressed in Escherichia coli strain X90

SMILES: O=C(C=CC[N+]1([O-])CCC(O)(c2ccc(Cl)cc2)CC1)c1ccc(F)cc1 (stereo unspecified) [(E)-4-[4-(4-Chloro-phenyl)-4-hydroxy-1-oxy-piperidin-1-yl]-1-(4-fluoro-phenyl)-but-2-en-1-one]
- IC50: 40 µM
